# Measurements taken from US20260199482A1, “BILE ACID-METRONIDAZOLE CONJUGATE AND USE THEREOF” (SOUTH CHINA UNIVERSITY OF TECHNOLOGY, priority 2022, published 2026).
# Read-outs that look alike come from different tables or passages of the source.
# Key:
# [1] = test system: Porphyromonas gingivalis ATCC 33277; assay: MIC determination using broth microdilution method, anaerobic bacteria; assay type: cell-based
# Protocol: S5, Culture of Porphyromonas gingivalis strain: • the strain stored at −80° C. was resuscitated in the anaerobic glove box with a Colombian blood agar plate, and statically cultured at 37° C. in the constant-temperature incubator for 5-7 days.
# (§1) The culture process of the strain was operated in the anaerobic glove box. After the operation was completed, the strain was well sealed with an anaerobic bag or an anaerobic box, taken out and then cultured in the constant-temperature incubator.
# [2] = test system: Bacteroides fragilis ATCC 25285; assay: as above; assay type: cell-based
# Protocol: as §1
# [3] = test system: Clostridioides difficile ATCC 43255; assay: as above; assay type: cell-based; conditions: for MIC: ATCC43255, Clostridioides difficile ATCC 43255, broth microdilution, anaerobic, 37° C., 48 h; for inhibitory effect on Clostridioides difficile (ATCC 43255), in words: comment on Table 1
# Protocol: 0.10 g of sterile cycloserine and 3.20 mg of sterile cefoxitin (filtered by a filter membrane and sterilized) were added to every 200 mL, mixed well, and poured into a sterile petri dish for later use.
# S3, culture of Clostridioides difficile strain: 1) the strain stored at −80° C. was resuscitated in an anaerobic glove box with a cycloserine-cefoxitin-fructose agar medium plate, and statically cultured at 37° C. in a constant-temperature incubator for 48 h; • 2) single colonies were picked, and statically cultured in the brain heart infusion broth medium overnight at 37° C. in the constant-temperature incubator; and • 3) the bacterial solution that was statically cultured overnight was transferred into the anaerobic glove box with the brain heart infusion broth medium at a ratio of 1:100, and cultured for 3-4 h until the OD600 was between 0.6 and 0.8; and during this process, 5 g/L of yeast extract solution was added to increase a strain concentration.
# as §1
# [4] = test system: H. pylori NCTC 11637; assay: MIC determination using broth microdilution method, Helicobacter pylori; assay type: cell-based; conditions: for MIC: Helicobacter pylori, NCTC11637; for inhibitory activity against drug-resistant bacteria, in words: metronidazole-resistant H. pylori NCTC 11637, versus metronidazole
# Protocol: (§2) • 1) A frozen solution stored at −80° C. was taken out, and thawed at room temperature; 100 μL of bacterial solution was taken with a pipette, coated onto a Columbia blood agar plate (finished-product medium), put invertedly in a […] culture box, placed in a micro-aerobic gas production bag to achieve a micro-aerobic environment, and cultured at 37° C. for 2-3 days. • 2) A sterile inoculation ring was used to pick Helicobacter pylori single colonies (transparent water droplets) grown on the Colombian blood agar medium and inoculated in the above liquid medium; and cultured at 37° C. in a micro-aerobic environment for 3 days. • 3) A required concentration (absorbance) for the experiment was reached after culture, and the bacterial solution was taken for subsequent experiments.
# (§3) The drug concentration at which bacteria ceased to grow or grew at the most significant reduction level was referred to as the MIC value.
# [5] = test system: H. pylori Sydney strain SS1; assay: as above; assay type: cell-based
# Protocol: as §2, §3
# [6] = test system: H. pylori ATCC 43504; assay: as above; assay type: cell-based; conditions: for MIC: Helicobacter pylori, ATCC43504; for inhibitory activity against drug-resistant bacteria, in words: metronidazole-resistant H. pylori ATCC 43504, versus metronidazole
# Protocol: as §2, §3
# [7] = test system: H. pylori ATCC 26695; assay: as above; assay type: cell-based
# Protocol: as §2, §3
# [8] = test system: Clostridioides difficile infection (spores, 027 Type); assay: Clostridioides difficile infection (CDI) mouse model; assay type: in vivo, C57BL/6 mice; conditions: for number of surviving mice: 10 animals per group
# Text: • 1) Experimental animals: C57BL/6, 4-6 weeks old, female.
# In order to evaluate the efficacy of the compounds of the present application on Clostridioides difficile infection, an animal model of Clostridioides difficile infection was established, as shown in FIG. 1. […] On Day 0, the mice were administrated with 10^5 CFU/mL of spores by gavage; and on Days 1 and 2, the mice were administrated with 10^6 CFU/mL of spores by gavage. Starting from Day 3, the mice were given 7 days of drug treatment, and all mice were euthanized at the end of the experiment, except for the death of mice during the treatment.
# Two of the conjugates, SCUT1-2 and SCUT1-6, with the optional in-vitro inhibitory activities were selected. […] The therapeutic effect of the conjugate of the present application in the treatment of Clostridioides difficile infection was evaluated.
# [9] = ATCC33277, Porphyromonas gingivalis ATCC 33277, broth microdilution, anaerobic, 37° C., 48 h, read-out: MIC
# [10] = ATCC25285, Bacteroides fragilis ATCC 25285, broth microdilution, anaerobic, 37° C., 48 h, read-out: MIC
# [11] = H. pylori NCTC 11637(R), metronidazole-resistant strain, read-out: MIC
# [12] = H. pylori Sydney strain SS1, read-out: MIC
# [13] = H. pylori ATCC 43504(R), metronidazole-resistant strain, read-out: MIC
# [14] = ATCC26695, H. pylori ATCC 26695(S), metronidazole-susceptible strain, read-out: MIC
# [15] = Day 3 (before the administration), 50 mg/kg groups
SMILES,"MIC [1, 9]","MIC [2, 10]",MIC [3],"MIC [4, 11]","MIC [5, 12]","MIC [6, 13]","MIC [7, 14]","number of mice with diarrhea [8, 15]","number of surviving mice [8, 15]","number of mice with diarrhea ([8]; Day 4, 50 mg/kg)","number of surviving mice ([8]; Day 4, 50 mg/kg)","number of mice with diarrhea ([8]; Day 5, 50 mg/kg)","number of surviving mice ([8]; Day 5, 50 mg/kg)","number of mice with diarrhea ([8]; Day 6, 50 mg/kg)","number of surviving mice ([8]; Day 6, 50 mg/kg)","number of mice with diarrhea ([8]; Day 7, 50 mg/kg)","number of surviving mice ([8]; Day 7, 50 mg/kg)","number of mice with diarrhea ([8]; Day 8, 50 mg/kg)","number of surviving mice ([8]; Day 8, 50 mg/kg)","number of mice with diarrhea ([8]; Day 9, 50 mg/kg)",further results
"C[C@H](CCC(=O)O)[C@H]1CC[C@H]2[C@@H]3[C@H](O)C[C@@H]4C[C@H](O)CC[C@]4(C)[C@H]3CC[C@]12C [CDCA, chenodeoxycholic acid, reference compound]",> 32 µg/mL,> 32 µg/mL,8 µg/mL,–,–,–,–,–,–,–,–,–,–,–,–,–,–,–,–,–,–
"C[C@H](CCC(=O)O)[C@H]1CC[C@H]2[C@@H]3[C@H](O)[C@H](O)[C@@H]4C[C@H](O)CC[C@]4(C)[C@H]3CC[C@]12C [HCA, hyocholic acid, reference compound]",> 32 µg/mL,> 32 µg/mL,32 µg/mL,–,–,–,–,–,–,–,–,–,–,–,–,–,–,–,–,–,–
Cc1ncc([N+](=O)[O-])n1CCOC(=O)CC[C@@H](C)[C@H]1CC[C@H]2[C@@H]3CC[C@@H]4C[C@H](O)CC[C@]4(C)[C@H]3CC[C@]12C [SCUT1-1],–,–,0.5 µg/mL,–,–,–,–,–,–,–,–,–,–,–,–,–,–,–,–,–,"MIC ([1]; Porphyromonas gingivalis, ATCC33277, 48 h): 2 µg/mL; MIC [4]: 16 µg/mL; MIC [5]: 8 µg/mL; MIC [6]: > 128 µg/mL; MIC ([7]; ATCC26695): 8 µg/mL; MIC ([2]; Bacteroides fragilis, ATCC25285, 48 h): 1 µg/mL"
Cc1ncc([N+](=O)[O-])n1CCOC(=O)CC[C@@H](C)[C@H]1CC[C@H]2[C@@H]3[C@@H](O)C[C@@H]4C[C@H](O)CC[C@]4(C)[C@H]3CC[C@]12C [SCUT1-2],0.25 µg/mL,1 µg/mL,0.12 µg/mL,16 µg/mL,8 µg/mL,8 µg/mL,4 µg/mL,10 (10) number of mice,10 (10) number of mice,7 number of mice,10 number of mice,4 number of mice,10 number of mice,2 number of mice,10 number of mice,1 number of mice,10 number of mice,1 number of mice,10 number of mice,1 number of mice,"death of mice during the treatment ([8]; 50 mg/kg, 7 days of drug treatment): no mice died; therapeutic effect, in words ([8]; 50 mg/kg, compared with Metronidazole, UDCA and MIX groups): a good therapeutic effect; number of surviving mice ([8]; Day 9, 50 mg/kg): 10 number of mice; diarrhea rate ([8]; at the endpoint of treatment, 50 mg/kg, Model group 100%): 10%; inhibitory effect on Clostridioides difficile (ATCC 43255), in words [3]: particularly prominent"
Cc1ncc([N+](=O)[O-])n1CCOC(=O)CC[C@@H](C)[C@H]1CC[C@H]2[C@@H]3[C@H](O)C[C@@H]4C[C@H](O)CC[C@]4(C)[C@H]3CC[C@]12C [SCUT1-3],0.5 µg/mL,4 µg/mL,0.12 µg/mL,8 µg/mL,8 µg/mL,4 µg/mL,4 µg/mL,–,–,–,–,–,–,–,–,–,–,–,–,–,"inhibitory activity against drug-resistant bacteria, in words [4]: significantly promoted; inhibitory activity against drug-resistant bacteria, in words [6]: significantly promoted; inhibitory effect on Clostridioides difficile (ATCC 43255), in words [3]: particularly prominent"
Cc1ncc([N+](=O)[O-])n1CCOC(=O)CC[C@@H](C)[C@H]1CC[C@H]2[C@@H]3[C@H](O)C[C@H]4C[C@H](O)CC[C@]4(C)[C@H]3CC[C@]12C [SCUT1-4],0.5 µg/mL,2 µg/mL,2 µg/mL,4 µg/mL,4 µg/mL,4 µg/mL,4 µg/mL,–,–,–,–,–,–,–,–,–,–,–,–,–,"inhibitory activity against drug-resistant bacteria, in words [4]: significantly promoted; inhibitory activity against drug-resistant bacteria, in words [6]: significantly promoted"
Cc1ncc([N+](=O)[O-])n1CCOC(=O)CC[C@@H](C)[C@H]1CC[C@H]2[C@@H]3C[C@H](O)[C@@H]4C[C@H](O)CC[C@]4(C)[C@H]3CC[C@]12C [SCUT1-5],2 µg/mL,2 µg/mL,0.25 µg/mL,32 µg/mL,16 µg/mL,4 µg/mL,8 µg/mL,–,–,–,–,–,–,–,–,–,–,–,–,–,–
Cc1ncc([N+](=O)[O-])n1CCOC(=O)CC[C@@H](C)[C@H]1CC[C@H]2[C@@H]3[C@H](O)[C@H](O)[C@@H]4C[C@H](O)CC[C@]4(C)[C@H]3CC[C@]12C [SCUT1-6],0.25 µg/mL,2 µg/mL,0.06 µg/mL,8 µg/mL,16 µg/mL,8 µg/mL,4 µg/mL,8 number of mice,10 number of mice,10 (10) number of mice,10 (10) number of mice,8 number of mice,10 number of mice,7 number of mice,10 number of mice,5 number of mice,10 number of mice,6 number of mice,10 number of mice,5 number of mice,"number of surviving mice ([8]; Day 9, 50 mg/kg): 10 number of mice; changes in mouse body weights ([8]; during drug treatment from Day 3, 50 mg/kg): continued to decrease until the third day of drug treatment (Day 5); promotion of inhibitory activity against Clostridioides difficile relative to metronidazole ([3]; at the same dosage, versus metronidazole): more than 50 times; inhibitory effect on Clostridioides difficile (ATCC 43255), in words [3]: particularly prominent"
Cc1ncc([N+](=O)[O-])n1CCOC(=O)CC[C@@H](C)[C@H]1CC[C@H]2[C@@H]3C(=O)C[C@@H]4C[C@H](O)CC[C@]4(C)[C@H]3C[C@H](O)[C@]12C [SCUT1-8],1 µg/mL,1 µg/mL,1 µg/mL,64 µg/mL,8 µg/mL,16 µg/mL,8 µg/mL,–,–,–,–,–,–,–,–,–,–,–,–,–,–
"C[C@H](CCC(=O)O)[C@H]1CC[C@H]2[C@@H]3[C@@H](O)C[C@@H]4C[C@H](O)CC[C@]4(C)[C@H]3CC[C@]12C [UDCA, ursodeoxycholic acid, reference compound]",> 32 µg/mL,> 32 µg/mL,16 µg/mL,> 128 µg/mL,> 32 µg/mL,> 128 µg/mL,> 32 µg/mL,9 number of mice,10 number of mice,9 number of mice,10 number of mice,7 number of mice,10 number of mice,6 number of mice,10 number of mice,4 number of mice,10 number of mice,5 number of mice,10 number of mice,5 number of mice,"number of surviving mice ([8]; Day 9, 50 mg/kg): 10 number of mice"
